In ChEMBL document CHEMBL1201862, “PubChem BioAssay data set” (2004):
The source made the active and inactive calls.

Legend:
Type in all cases: functional
[1] = biological target: T1, Apoptotic protease-activating factor 1 (Homo sapiens, UniProt O14727)
T1 sequence (O14727 whole entry): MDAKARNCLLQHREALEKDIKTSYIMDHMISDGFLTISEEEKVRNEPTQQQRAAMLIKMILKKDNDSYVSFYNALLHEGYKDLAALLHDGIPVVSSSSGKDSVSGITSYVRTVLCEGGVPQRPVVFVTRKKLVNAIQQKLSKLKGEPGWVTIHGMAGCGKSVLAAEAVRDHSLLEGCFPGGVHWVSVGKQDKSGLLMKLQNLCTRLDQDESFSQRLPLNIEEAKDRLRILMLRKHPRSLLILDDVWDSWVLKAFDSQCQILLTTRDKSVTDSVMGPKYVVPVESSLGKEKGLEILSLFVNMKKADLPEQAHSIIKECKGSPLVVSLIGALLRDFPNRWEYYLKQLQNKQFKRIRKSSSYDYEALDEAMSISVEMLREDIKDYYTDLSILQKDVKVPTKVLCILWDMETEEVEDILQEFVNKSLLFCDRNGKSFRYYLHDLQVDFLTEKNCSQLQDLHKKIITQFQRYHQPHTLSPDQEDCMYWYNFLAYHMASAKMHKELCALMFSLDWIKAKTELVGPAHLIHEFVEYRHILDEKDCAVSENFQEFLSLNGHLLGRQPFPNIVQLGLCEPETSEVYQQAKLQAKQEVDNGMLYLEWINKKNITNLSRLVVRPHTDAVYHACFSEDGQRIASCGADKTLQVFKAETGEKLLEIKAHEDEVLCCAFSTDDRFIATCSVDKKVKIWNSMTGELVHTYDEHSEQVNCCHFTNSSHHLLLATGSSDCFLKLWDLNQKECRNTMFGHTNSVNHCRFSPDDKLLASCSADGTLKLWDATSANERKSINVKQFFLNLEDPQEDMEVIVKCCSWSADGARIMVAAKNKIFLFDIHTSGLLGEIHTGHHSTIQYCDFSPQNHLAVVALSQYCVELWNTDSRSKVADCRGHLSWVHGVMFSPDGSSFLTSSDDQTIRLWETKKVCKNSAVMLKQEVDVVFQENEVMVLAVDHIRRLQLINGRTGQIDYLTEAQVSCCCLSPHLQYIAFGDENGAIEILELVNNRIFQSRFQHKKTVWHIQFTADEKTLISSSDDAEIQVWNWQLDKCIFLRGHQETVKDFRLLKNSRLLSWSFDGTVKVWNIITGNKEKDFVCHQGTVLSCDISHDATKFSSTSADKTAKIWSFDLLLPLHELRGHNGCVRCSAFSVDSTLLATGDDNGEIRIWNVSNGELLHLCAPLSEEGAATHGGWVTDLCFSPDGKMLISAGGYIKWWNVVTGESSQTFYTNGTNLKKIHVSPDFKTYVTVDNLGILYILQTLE

[2] = biological target: Dual specificity mitogen-activated protein kinase kinase 1 (Homo sapiens, UniProt Q02750); assay: Navigating the Kinome. Panel member name: MAP2K1
Dual specificity mitogen-activated protein kinase kinase 1, sequence (Q02750 whole entry): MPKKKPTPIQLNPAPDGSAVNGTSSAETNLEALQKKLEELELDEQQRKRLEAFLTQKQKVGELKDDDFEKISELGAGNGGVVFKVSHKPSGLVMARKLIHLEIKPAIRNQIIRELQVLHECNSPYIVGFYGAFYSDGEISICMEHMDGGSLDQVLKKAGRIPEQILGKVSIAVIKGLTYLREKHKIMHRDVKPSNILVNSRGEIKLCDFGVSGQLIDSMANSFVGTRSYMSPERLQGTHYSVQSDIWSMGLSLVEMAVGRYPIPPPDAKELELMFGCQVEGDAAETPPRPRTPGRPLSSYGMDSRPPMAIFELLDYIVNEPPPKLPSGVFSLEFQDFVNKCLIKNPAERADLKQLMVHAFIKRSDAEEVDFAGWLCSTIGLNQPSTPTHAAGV

[3] = biological target: T2, Receptor-type tyrosine-protein kinase FLT3 (Homo sapiens, UniProt P36888);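 note: FLT3 was tested as one member of a kinome-wide kinase panel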
T2 sequence (P36888 whole entry): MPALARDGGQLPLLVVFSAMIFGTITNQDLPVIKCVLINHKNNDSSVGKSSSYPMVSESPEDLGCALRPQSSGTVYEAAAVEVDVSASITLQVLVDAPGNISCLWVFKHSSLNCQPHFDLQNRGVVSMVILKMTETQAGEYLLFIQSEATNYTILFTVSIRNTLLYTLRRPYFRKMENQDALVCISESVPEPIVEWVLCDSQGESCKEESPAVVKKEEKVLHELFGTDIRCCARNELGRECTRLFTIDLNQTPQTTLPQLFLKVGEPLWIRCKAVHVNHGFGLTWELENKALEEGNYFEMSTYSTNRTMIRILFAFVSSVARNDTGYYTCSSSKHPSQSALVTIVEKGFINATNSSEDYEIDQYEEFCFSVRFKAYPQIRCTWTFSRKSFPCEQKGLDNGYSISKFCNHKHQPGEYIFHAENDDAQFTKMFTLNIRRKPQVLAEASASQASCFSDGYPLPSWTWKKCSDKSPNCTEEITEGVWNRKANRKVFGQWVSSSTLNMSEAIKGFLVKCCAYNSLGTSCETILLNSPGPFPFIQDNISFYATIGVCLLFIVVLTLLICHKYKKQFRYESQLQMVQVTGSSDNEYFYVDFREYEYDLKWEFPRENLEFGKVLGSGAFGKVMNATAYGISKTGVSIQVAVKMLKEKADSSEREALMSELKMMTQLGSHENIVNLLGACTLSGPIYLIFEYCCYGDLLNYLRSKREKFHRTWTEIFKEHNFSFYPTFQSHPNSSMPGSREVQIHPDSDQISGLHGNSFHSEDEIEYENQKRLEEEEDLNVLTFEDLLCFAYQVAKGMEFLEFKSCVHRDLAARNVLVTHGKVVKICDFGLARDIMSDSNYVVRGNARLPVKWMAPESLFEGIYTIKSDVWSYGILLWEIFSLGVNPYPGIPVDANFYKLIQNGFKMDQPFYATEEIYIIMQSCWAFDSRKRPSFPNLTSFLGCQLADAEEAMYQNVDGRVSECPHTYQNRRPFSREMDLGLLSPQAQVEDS

[4] = biological target: Vascular endothelial growth factor receptor 2 (Homo sapiens, UniProt P35968)
Vascular endothelial growth factor receptor 2, sequence (P35968 whole entry): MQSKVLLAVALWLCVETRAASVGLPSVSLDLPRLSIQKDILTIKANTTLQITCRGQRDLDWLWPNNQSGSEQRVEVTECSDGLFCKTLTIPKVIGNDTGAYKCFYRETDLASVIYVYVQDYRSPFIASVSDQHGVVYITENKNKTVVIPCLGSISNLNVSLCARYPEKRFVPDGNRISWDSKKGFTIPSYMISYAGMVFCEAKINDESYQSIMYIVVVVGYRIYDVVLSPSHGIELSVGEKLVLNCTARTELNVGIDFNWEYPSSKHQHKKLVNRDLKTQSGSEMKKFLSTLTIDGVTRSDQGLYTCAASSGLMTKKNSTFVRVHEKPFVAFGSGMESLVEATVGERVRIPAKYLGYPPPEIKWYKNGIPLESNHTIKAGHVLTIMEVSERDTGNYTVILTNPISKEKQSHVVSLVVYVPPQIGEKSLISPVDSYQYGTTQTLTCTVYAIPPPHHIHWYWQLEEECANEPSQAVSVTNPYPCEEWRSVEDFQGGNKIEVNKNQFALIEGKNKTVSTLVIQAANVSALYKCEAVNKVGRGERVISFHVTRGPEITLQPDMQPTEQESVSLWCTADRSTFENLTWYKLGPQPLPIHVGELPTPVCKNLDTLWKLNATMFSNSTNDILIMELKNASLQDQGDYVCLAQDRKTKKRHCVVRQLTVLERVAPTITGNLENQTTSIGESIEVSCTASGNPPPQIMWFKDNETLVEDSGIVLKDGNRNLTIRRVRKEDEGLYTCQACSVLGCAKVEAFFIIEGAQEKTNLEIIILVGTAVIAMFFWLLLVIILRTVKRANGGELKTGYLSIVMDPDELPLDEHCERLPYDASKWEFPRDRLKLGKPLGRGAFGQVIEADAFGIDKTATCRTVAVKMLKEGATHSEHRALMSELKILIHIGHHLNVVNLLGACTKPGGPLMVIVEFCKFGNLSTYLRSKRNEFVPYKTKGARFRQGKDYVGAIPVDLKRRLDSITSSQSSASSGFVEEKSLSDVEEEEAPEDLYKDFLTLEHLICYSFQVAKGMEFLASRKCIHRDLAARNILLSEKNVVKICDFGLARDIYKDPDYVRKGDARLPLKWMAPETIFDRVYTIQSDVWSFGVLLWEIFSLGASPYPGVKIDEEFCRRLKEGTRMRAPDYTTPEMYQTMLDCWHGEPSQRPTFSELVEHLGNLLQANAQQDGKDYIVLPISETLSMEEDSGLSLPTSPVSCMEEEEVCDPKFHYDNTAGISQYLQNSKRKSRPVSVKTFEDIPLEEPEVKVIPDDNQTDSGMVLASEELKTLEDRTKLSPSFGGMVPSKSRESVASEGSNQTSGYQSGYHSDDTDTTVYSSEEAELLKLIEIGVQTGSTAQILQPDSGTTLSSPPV

[5] = biological target: Dual specificity tyrosine-phosphorylation-regulated kinase 1B (Homo sapiens, UniProt Q9Y463); assay: Navigating the Kinome. Panel member name: DYRK1B
Dual specificity tyrosine-phosphorylation-regulated kinase 1B, sequence (Q9Y463 whole entry): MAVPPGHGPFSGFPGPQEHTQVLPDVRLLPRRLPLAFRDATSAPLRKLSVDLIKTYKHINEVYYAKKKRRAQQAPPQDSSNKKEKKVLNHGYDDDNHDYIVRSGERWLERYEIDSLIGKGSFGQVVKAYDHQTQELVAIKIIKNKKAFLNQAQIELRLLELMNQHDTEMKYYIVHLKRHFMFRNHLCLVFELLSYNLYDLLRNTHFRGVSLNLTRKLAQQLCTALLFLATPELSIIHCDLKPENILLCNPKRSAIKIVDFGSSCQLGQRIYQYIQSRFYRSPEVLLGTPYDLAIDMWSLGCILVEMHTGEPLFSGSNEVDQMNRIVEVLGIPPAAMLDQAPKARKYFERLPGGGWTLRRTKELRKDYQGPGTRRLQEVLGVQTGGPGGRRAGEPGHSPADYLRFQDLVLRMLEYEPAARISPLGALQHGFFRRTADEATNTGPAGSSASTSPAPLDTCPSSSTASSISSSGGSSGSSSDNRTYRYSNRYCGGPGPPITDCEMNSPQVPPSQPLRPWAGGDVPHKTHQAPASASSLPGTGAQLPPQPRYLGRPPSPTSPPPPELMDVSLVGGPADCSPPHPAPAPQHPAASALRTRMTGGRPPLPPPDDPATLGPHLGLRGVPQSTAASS

[6] = biological target: T3, Serine/threonine-protein kinase Nek2 (Homo sapiens, UniProt P51955)
T3 sequence (P51955 whole entry): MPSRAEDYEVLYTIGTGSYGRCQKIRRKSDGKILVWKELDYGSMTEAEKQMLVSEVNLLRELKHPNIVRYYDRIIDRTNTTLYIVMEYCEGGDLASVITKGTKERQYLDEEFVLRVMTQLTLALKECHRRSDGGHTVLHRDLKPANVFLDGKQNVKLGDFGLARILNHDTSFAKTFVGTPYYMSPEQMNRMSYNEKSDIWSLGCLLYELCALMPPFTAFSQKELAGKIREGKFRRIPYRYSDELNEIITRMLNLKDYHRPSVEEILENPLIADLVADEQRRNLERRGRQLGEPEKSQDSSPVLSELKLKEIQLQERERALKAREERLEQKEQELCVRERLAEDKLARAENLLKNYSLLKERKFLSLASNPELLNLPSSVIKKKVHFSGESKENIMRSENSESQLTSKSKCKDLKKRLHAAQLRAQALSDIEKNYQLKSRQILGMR

| Ki [2] | Ki [3] | Ki [4] | Ki [5] | Ki [6] | Structure (SMILES) | IC50 [1] |
| --- | --- | --- | --- | --- | --- | --- |
| – | – | – | – | – | CCN(CC)CCOc1ccc2c(c1)C(=NNC(=O)c1ccccn1)c1cc(OCCN(CC)CC)ccc1-2 | 10.2 µM (active) |
| – | – | – | – | – | O=C(NC1=C(Nc2ccc(F)cc2)C(=O)c2ccccc2C1=O)c1ccc(Cl)cc1 | 16.2 µM (active) |
| – | – | – | – | – | COc1cc2cc(NC(C)=O)cc(NCc3ccccc3)c2cc1OC | 20.7 µM (active) |
| – | – | – | – | – | Oc1nc(Nc2ccc(F)cc2)cc2ccccc12 | 3.76 µM (active) |
| – | – | – | – | – | CN(C)c1cc(N/N=C\c2ccccc2)nc(N(C)C)n1 | 1.1 µM (active) |
| 1.26 µM (active) | > 3.16 µM (inactive) | 0.0126 µM (active) | 0.398 µM (active) | > 3.16 µM (inactive) | O=C1Nc2cc(-c3ccc(O)cc3)ccc2C1=Cc1ccc[nH]1 | – |
| 0.316 µM (active) | 0.0251 µM (active) | 0.000631 µM (active) | 0.001 µM (active) | 1.26 µM (active) | NC(COc1cncc(-c2ccc3c(c2)C(=Cc2ccc[nH]2)C(=O)N3)c1)Cc1ccccc1 (stereo not given) | – |
| 79.4 µM (active) | 79.4 µM (active) | 31.6 µM (active) | 50.1 µM (active) | 39.8 µM (active) | O=C1Cc2cc(-c3ccccc3)cnc2N1 | – |
